Assay results taken from paper PMC5768801, “The PII signaling protein from red algae represents an evolutionary link between cyanobacterial and Chloroplastida PII proteins” (Scientific Reports, 2018).

Test system: PipX
Experiment: Pull-down analysis of PipX binding to PII proteins
Set-up: species or system Synechocystis sp. PCC 6803
Conditions: 10 µM proteins, 1 mM ADP, Strep-Tactin column, Tricine-SDS-PAGE
Description: In cyanobacteria, PipX is the second known receptor of PII signaling. We questioned whether red algal PII proteins have lost or retained the ability to bind to PipX. To test this possibility, we first analyzed complex formation using pull-down experiments (Supplementary Fig. S3A and B). The PII protein from Synechocystis sp. PCC 6803 (ScPII) was mixed with PipX in the presence of ADP and then the Strep-tagged PII was immobilized on the Strep-Tactin II column (Supplementary Fig. S3A). After extensive washes, the proteins were eluted with desthiobiotin and analyzed by Tricine-SDS-PAGE. Both proteins were detected in the elution. Thus, confirming previous studies[16]–[18], cyanobacterial PII was bound to PipX. When PpPII in the presence of PipX was immobilized on the column, no PipX signal was detected in the elution (Supplementary Fig. S3B).
For complex formation, the binding reactions were done in 300 μl of buffer (100 mM Tris HCl, pH 8.0, 150 mM NaCl, 1 mM EDTA) by adding 10 µM of purified proteins: His6-ScPipX and Strep-tag ScPII or Strep-tag PpPII. […] The eluted fractions were analyzed by Tricine-SDS PAGE[51] and stained with SimplyBlue™ SafeStain (Invitrogen).
Figure S3. […] Complex formation between PipX and ScPII (A) or PpPII (B) was assessed by pull-down. […] (C) Complex formation between PipX and PII proteins was assessed by SPR. […]

With “ScPII: PII protein from Synechocystis sp. PCC 6803, recombinant with C-terminal Strep-tag II” the “complex formation with PipX (pull-down)” value was “bound to PipX”.
